Measurements: patent US12371658B2, “Three-dimensional microtissues with integrated mechanical loading” (Carnegie Mellon University, priority 2017, dated 2025)

System: cardiac MIFIs (HUES9-CMs with 10% FBs)
Experiment: side-on contractility assay of cardiac MIFIs with drug dosing (twitch force, beat frequency)
Assay type: cell-based, human
Conditions: for beat frequency relative to initial beat frequency: normalized to native beat frequency
Method: MIFIs were removed from wells using forceps and were transferred to a 35 mm petri dish filled with 37° C. Tyrode's solution (1.192 g HEPES, 0.203 g MgCl2, 0.403 g KCl, 7.889 g NaCl, 0.04 g NaH2PO4, 0.901 g C6H12O6, and 0.265 g CaCl2) per liter of distilled water, pH 7.4). MIFIs were anchored by placing the wide base of the strip into a slit in a PDMS block glued to the bottom of the stimulation dish. The Tyrode's bath was maintained between 30° and 37° C. using a heated stage regulated by an in house Lab VIEW program. Videos of samples were taken using a NikonTM […] DSLR camera mounted on a NikonTM SMZ1500 stereomicroscope. Samples were paced from 2-10 Hz using parallel platinum electrodes placed 2 cm apart and immersed in Tyrode's solution. Samples were stimulated with 40V using a 10 ms square pulse wave. Shorter pulse durations can also be used (e.g., 2 ms, 4 ms, 6 ms, etc.). Carbachol and isoprenaline were mixed to stock concentrations of 5 mM in 1× Tyrode's solution. […] Caffeine was dissolved directly in Tyrode's to make a stock solution of 20 mM. […] Finite element modeling of bending PDMS strips was used to create lookup tables for strips ranging in thickness from 125 to 154 μm. FIGS. 9A-D show modeling data 930 for strips 900, 910, and 920. The elastic strip (e.g., strip 112) was modeled as 3D deformable extruded solid, with extruded thickness varying between 125 and 154 μm. The elastic strip was considered as linearly elastic, isotropic and incompressible material, with Young's modulus equal to 3.09 MPa according to elastic modulus measurements. The section of the elastic strip was considered as solid homogeneous. The force-driven bending simulation was designed to mimic the experimental procedure. One static general analysis step was used where the elastic strip was deformed by application of equal contractile force in three parallel axial connectors placed in the regions where the tissue was attached during the experiment, so that the total force would equal the sum of the contractile force of the three connectors. […] Additional boundary conditions were imposed based on geometrical symmetry. […] Finally, the finite element mesh was composed of 20-node quadratic, hybrid, reduced integration brick elements. From this model, the change in tissue length could then be used to calculate the force necessary to bend the strips to these conformations. Length changes of contracting MIFIs were tracked and resulting length data was used to calculate the corresponding force based on tissue length and strip parameters (e.g., thickness, width, length, elastic modulus, and shape). […] By tracking the change in tissue length of beating MIFIs, we calculated force generated by these tissues using force lookup tables. MIFIs were removed from wells, one side of the strip was placed in a slit in a PDMS block to anchor the MIFI for side-on viewing, and the construct was submerged in Tyrode's and placed between two parallel platinum electrodes for later stimulation by assay device 1300.

[1] = Day 14, 10% FB MIFI, carbachol dosing, concentration not given
[2] = Day 14, 10% FB MIFI, isoprenaline at 500 nM and 5 μM

## Cn1c(=O)c2c(ncn2C)n(C)c1=O [caffeine]
5 mM caffeine
  beat frequency relative to initial BPM: 1.59 ×
Day 14, 10% FB MIFI, 55 mM caffeine
  effect on twitch force: minimal impact on the twitch force
Day 14, 10% FB MIFI, 55 mM caffeine, after isoprenaline wash-out
  effect on spontaneous beat frequency: increased the spontaneous beat frequency

## C[N+](C)(C)CCOC(N)=O [carbachol]
[1]
  effect on spontaneous beat frequency: reduced the spontaneous beat frequency
  effect on twitch force: surprisingly little impact on twitch force
Day 14 arrhythmic construct, carbachol 500 nM, 5 μM, 50 µM, spontaneous beating
  twitch force relative to twitch force of synchronous constructs: ~30%
Day 14 arrhythmic construct, increasing carbachol doses 500 nM, 5 μM, 50 µM
  effect on spontaneous beat frequency of arrhythmic construct: improvement in the spontaneous beat frequency
Arrhythmic construct, 2 Hz pacing coupled with 5 μM carbachol
  fold stronger twitch contraction: 2.5 ×
Arrhythmic construct, 2 Hz pacing coupled with 50 μM carbachol
  fold stronger twitch contraction: 2.8 ×
Arrhythmic construct, carbachol 5 μM and 50 μM, 2 Hz pacing
  combinatorial effect of drug treatment with electric pacing on twitch force: significantly higher twitch forces

## CNC[C@H](O)c1ccc(O)c(O)c1 [epinephrine]
5 μM epinephrine, electrical pacing 2 Hz
  twitch force as percent of initial twitch force: 85%
5 μM epinephrine, spontaneous beating
  twitch force as percent of initial twitch force: 66%
50 μM epinephrine, electrical pacing 2 Hz
  twitch force as percent of initial twitch force: 80%
50 μM epinephrine, spontaneous beating
  twitch force as percent of initial twitch force: 61%
Day 14, 10% FB MIFI, 500 nM epinephrine, spontaneous beating
  twitch force: 5.49 μN
Day 14, 10% FB MIFI, epinephrine 500 nM to 50 μM
  effect on twitch force: dose-dependent decrease in twitch force
epinephrine, first of two values, dose not given
  beat frequency relative to initial BPM: 1.42 ×

## CC(C)NCC(O)c1ccc(O)c(O)c1 (centres unmarked) [isoprenaline]
500 nM isoprenaline
  beat frequency relative to initial beat frequency: 1.27 ×
50 μM isoprenaline
  beat frequency relative to initial beat frequency: 1.48 ×
Day 14, 10% FB MIFI, 500 nM isoprenaline
  twitch force as percent of initial twitch force: ~80%
Day 14, 10% FB MIFI, 500 nM isoprenaline, 2 Hz paced
  twitch force: 2.81 μN
Day 14, 10% FB MIFI, 500 nM isoprenaline, spontaneous beating
  twitch force: 2.85 μN
Day 14, 10% FB MIFI, beating spontaneously in 5 M isoprenaline
  twitch force: ~4.0 μN
Day 14, 10% FB MIFI, isoprenaline
  twitch force as percent of initial twitch strength: ~50%
[2]
  effect on native beat frequency: intended stimulatory effect
  effect on twitch force: did not noticeably affect the twitch force
Day 14, 10% FB MIFI, isoprenaline at 500 nM and 5 μM, 2 Hz pacing
  ability to electrically pace the constructs: did not interrupt the ability to electrically pace the constructs
Day 14, 10% FB MIFI, isoprenaline, 2 Hz paced
  twitch force: 2.15 μN
Day 14, 10% FB MIFI, isoprenaline, spontaneous beating
  twitch force: 1.78 μN
